According to patent publication US10660877B2 (BRISTOL-MYERS SQUIBB COMPANY, priority 2016, dated 2020):
Read-outs that look alike come from different tables or passages of the source.

Columns and labels:
human TLR7 = human TLR7 (Homo sapiens (Human), UniProt Q9NYK1); assay: TLR7 inhibition reporter assay (HEK-Blue cells, SEAP reporter, gardiquimod stimulation); type: cell-based; settings: HEK-Blue cells overexpressing human TLR7, gardiquimod 7.5 μM
human TLR8 = human TLR8 (Homo sapiens (Human), UniProt Q9NR97); assay: TLR8 inhibition reporter assay (HEK-Blue cells, SEAP reporter, R848 stimulation);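 further: compounds tested from 0.05 nM to 50 µM, 22 h at 37 °C, SEAP measured with HEK-Blue Detection, inhibition relative to agonist plus DMSO versus a known inhibitor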
Chain of human TLR8 (Q9NR97 27-1041): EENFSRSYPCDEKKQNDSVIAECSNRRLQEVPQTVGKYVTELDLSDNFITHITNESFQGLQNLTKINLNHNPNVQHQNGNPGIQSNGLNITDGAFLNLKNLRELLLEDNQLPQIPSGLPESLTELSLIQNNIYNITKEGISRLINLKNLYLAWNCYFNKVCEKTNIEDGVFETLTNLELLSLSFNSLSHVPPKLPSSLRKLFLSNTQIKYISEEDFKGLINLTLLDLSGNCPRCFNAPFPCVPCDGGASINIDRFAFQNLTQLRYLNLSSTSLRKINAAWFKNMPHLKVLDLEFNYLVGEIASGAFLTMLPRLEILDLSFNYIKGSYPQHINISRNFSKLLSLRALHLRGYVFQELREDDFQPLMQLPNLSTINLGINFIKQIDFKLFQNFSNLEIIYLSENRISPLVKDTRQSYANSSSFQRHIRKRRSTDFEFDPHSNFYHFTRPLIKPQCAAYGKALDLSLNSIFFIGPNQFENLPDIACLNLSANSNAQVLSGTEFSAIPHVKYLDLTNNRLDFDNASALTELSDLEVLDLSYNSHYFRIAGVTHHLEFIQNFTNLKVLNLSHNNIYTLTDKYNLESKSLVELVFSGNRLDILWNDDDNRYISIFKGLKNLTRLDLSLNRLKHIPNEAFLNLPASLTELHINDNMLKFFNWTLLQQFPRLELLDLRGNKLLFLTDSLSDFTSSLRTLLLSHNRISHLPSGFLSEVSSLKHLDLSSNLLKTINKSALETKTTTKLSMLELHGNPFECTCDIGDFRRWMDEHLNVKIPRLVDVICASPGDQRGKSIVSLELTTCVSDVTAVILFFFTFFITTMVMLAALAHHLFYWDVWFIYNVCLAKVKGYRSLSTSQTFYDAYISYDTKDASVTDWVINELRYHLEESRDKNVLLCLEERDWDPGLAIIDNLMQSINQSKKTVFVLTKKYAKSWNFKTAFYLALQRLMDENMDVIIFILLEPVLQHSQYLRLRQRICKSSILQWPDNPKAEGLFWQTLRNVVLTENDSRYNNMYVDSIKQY

human TLR9 = human TLR9 (Homo sapiens (Human), UniProt Q9NR96); assay: TLR9 inhibition reporter assay (HEK-Blue cells, SEAP reporter, ODN2006 stimulation);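 further: compounds tested over 0.05 nM to 50 µM, 22 h incubation, inhibition taken as SEAP signal drop from agonist plus DMSO wells toward a known inhibitor control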
Chain of human TLR9 (Q9NR96 26-1032): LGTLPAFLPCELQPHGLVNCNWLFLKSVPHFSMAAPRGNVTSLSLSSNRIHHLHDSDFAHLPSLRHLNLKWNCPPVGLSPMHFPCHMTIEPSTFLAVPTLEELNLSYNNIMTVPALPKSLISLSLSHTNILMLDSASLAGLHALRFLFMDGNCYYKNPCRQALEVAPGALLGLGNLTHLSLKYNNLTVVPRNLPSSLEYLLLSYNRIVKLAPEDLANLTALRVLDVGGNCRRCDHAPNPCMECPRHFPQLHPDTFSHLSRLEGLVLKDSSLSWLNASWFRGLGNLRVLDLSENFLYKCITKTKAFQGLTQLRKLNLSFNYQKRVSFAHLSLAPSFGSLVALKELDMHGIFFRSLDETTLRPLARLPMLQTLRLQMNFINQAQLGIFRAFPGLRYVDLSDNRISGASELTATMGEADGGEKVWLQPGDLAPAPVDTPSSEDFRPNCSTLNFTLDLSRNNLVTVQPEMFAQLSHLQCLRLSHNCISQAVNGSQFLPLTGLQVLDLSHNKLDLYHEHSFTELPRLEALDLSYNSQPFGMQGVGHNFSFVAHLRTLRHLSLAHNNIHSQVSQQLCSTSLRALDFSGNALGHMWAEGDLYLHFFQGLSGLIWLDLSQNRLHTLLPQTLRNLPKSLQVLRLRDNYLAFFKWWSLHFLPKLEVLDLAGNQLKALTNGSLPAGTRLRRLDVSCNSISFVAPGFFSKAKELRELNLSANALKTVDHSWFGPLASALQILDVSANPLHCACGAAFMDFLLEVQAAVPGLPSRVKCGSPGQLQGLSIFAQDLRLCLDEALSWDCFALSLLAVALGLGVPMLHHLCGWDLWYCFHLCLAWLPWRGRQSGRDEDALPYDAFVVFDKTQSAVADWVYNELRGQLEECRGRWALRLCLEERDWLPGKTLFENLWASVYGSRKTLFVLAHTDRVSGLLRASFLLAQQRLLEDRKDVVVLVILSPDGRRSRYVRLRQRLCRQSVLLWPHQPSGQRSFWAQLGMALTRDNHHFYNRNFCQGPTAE

[1] = read-out: TLR8 IC50, HEK-Blue cells overexpressing human TLR8, R848 15.9 μM
[2] = read-out: TLR9 IC50, HEK-Blue cells overexpressing human TLR9, ODN2006 5 nM
[3] = TLR8 IC50, HEK-Blue cells overexpressing human TLR8, R848 15.9 μM
[4] = TLR9 IC50, HEK-Blue cells overexpressing human TLR9, ODN2006 5 nM

Chain of human TLR7 (Q9NYK1 27-1049): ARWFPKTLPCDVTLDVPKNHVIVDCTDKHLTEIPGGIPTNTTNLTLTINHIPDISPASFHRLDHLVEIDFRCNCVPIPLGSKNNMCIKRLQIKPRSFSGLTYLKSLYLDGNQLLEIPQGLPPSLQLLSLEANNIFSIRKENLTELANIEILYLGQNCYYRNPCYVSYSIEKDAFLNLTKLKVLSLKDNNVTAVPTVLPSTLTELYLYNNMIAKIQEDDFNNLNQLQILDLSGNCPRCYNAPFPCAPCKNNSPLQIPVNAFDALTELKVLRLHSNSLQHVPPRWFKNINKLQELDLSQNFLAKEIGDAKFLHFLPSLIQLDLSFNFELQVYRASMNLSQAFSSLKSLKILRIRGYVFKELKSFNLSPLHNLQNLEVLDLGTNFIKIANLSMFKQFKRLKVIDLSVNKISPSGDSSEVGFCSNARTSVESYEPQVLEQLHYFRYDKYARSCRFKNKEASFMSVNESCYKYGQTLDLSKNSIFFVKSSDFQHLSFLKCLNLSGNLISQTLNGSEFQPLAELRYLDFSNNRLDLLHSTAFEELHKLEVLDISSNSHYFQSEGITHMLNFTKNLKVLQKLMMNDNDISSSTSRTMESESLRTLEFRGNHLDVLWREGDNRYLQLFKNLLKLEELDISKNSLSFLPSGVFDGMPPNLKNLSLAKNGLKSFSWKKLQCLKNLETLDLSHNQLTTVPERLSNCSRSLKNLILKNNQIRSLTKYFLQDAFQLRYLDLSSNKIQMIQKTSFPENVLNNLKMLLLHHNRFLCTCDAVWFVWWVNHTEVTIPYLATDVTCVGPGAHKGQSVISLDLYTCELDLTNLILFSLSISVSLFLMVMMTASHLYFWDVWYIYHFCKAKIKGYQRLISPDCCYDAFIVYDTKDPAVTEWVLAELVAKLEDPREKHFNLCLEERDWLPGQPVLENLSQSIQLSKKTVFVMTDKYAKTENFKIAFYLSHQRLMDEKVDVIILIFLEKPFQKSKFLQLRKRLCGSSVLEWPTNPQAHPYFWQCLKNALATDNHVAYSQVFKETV

Cc1cc(-c2[nH]c3ccc(C4CCNCC4)cc3c2C(C)C)c(C(N)=O)cn1 [Example 15, 4-(3-isopropyl-5-(piperidin-4-yl)-1H-indol-2-yl)-6-methylnicotinamide]
IC50 (human TLR7): 1540 nM
IC50 (human TLR8; [1]): 448 nM
IC50 (human TLR9; [2]): 26500 nM

Cc1cc(-c2[nH]c3ccc(C4CCN(C(=O)CN5C[C@H](C)C[C@@H]5CO)CC4)cc3c2C(C)C)cc(C)n1 [Example 410, 1-(4-(2-(2,6-dimethylpyridin-4-yl)-3-isopropyl-1H-indol-5-yl)piperidin-1-yl)-2-((2R,4R)-2-(hydroxymethyl)-4-methylpyrrolidin-1-yl)ethan-1-one]
IC50 (human TLR7): 4.5 nM
IC50 (human TLR8; [1]): 27 nM
IC50 (human TLR9; [2]): 481 nM

Cc1cc(-c2[nH]c3ccc(C4CCN(CC(=O)NC5(C)CC5)CC4)cc3c2C(C)C)cc(C)n1 [Example 251, 2-(4-(2-(2,6-dimethylpyridin-4-yl)-3-isopropyl-1H-indol-5-yl)piperidin-1-yl)-N-(1-methylcyclopropyl)acetamide]
IC50 (human TLR7): 4.3 nM
IC50 (human TLR8; [1]): 9 nM
IC50 (human TLR9; [2]): 817 nM

Cc1cc(-c2[nH]c3ccc(C4CCN(C(=O)Cn5ccccc5=O)CC4)cc3c2C(C)C)cc(C)n1 [Example 157, 1-(2-(4-(2-(2,6-dimethylpyridin-4-yl)-3-isopropyl-1H-indol-5-yl)piperidin-1-yl)-2-oxoethyl)pyridin-2(1H)-one]
IC50 (human TLR7): 16.5 nM
IC50 (human TLR8; [1]): 65.7 nM
IC50 (human TLR9; [2]): 2500 nM

COc1cc(-c2[nH]c3ccc(C4CCN(C5CCN(CC6CC6)CC5)CC4)cc3c2C(C)C)ccn1 [Example 796, 5-(1′-(cyclopropylmethyl)-[1,4′-bipiperidin]-4-yl)-3-isopropyl-2-(2-methoxypyridin-4-yl)-1H-indole]
IC50 (human TLR7): 154 nM
IC50 (human TLR8; [1]): 13.9 nM
IC50 (human TLR9; [2]): 563 nM

Cc1cc(-c2[nH]c3ccc(C4CCN(C(=O)CCN(C)C)CC4)cc3c2C(C)C)ccn1 [Example 578, 3-(dimethylamino)-1-(4-(3-isopropyl-2-(2-methylpyridin-4-yl)-1H-indol-5-yl)piperidin-1-yl)propan-1-one]
IC50 (human TLR7): 7.1 nM
IC50 (human TLR8; [1]): 5.7 nM
IC50 (human TLR9; [2]): 722 nM

Cc1cc(-c2[nH]c3ccc(C4CCN(Cc5c[nH]c(C)n5)CC4)cc3c2C(C)C)cc(C)n1 [Example 426, 2-(2,6-dimethylpyridin-4-yl)-3-isopropyl-5-(1-((2-methyl-1H-imidazol-4-yl)methyl)piperidin-4-yl)-1H-indole]
IC50 (human TLR7): 6.1 nM
IC50 (human TLR8; [1]): 2.6 nM
IC50 (human TLR9; [2]): 90 nM

Cc1cc(-c2[nH]c3ccc(C4CCNCC4)cc3c2CC(F)F)ccn1 [Example 84, 3-(2,2-difluoroethyl)-2-(2-methylpyridin-4-yl)-5-(piperidin-4-yl)-1H-indole]
IC50 (human TLR7): 75.9 nM
IC50 (human TLR8; [1]): 39.4 nM
IC50 (human TLR9; [2]): 464 nM

Cc1cc(-c2[nH]c3ccc(C4CCN(C(=O)CNCCC(C)(C)C)CC4)cc3c2C(C)C)cc(C)n1 [Example 347, 2-((3,3-dimethylbutyl)amino)-1-(4-(2-(2,6-dimethylpyridin-4-yl)-3-isopropyl-1H-indol-5-yl)piperidin-1-yl)ethan-1-one]
IC50 (human TLR7): 17.4 nM
IC50 (human TLR8; [1]): 47.9 nM
IC50 (human TLR9; [2]): 752 nM

Cc1cc(-c2[nH]c3ccc(C4CCN(C(=O)C5(C#N)CC5)CC4)cc3c2C(C)C)ccn1 [Example 611, 1-(4-(3-isopropyl-2-(2-methylpyridin-4-yl)-1H-indol-5-yl)piperidine-1-carbonyl)cyclopropane-1-carbonitrile]
IC50 (human TLR7): 19.7 nM
IC50 (human TLR8; [1]): 108 nM
IC50 (human TLR9; [2]): 9450 nM

COc1ccc(CN2CCC(c3ccc4[nH]c(-c5cc(C)nc(C)c5)c(C(C)C)c4c3)CC2)cn1 [Example 424, 2-(2,6-dimethylpyridin-4-yl)-3-isopropyl-5-(1-((6-methoxypyridin-3-yl)methyl)piperidin-4-yl)-1H-indole]
IC50 (human TLR7): 8.3 nM
IC50 (human TLR8; [1]): 7.2 nM
IC50 (human TLR9; [2]): 255 nM

CCc1c(-c2ccnc(C)c2)[nH]c2ccc(C3CCN(C[C@@H]4CCCN4)CC3)cc12 [Example 740, (S)-3-ethyl-2-(2-methylpyridin-4-yl)-5-(1-(pyrrolidin-2-ylmethyl)piperidin-4-yl)-1H-indole]
IC50 (human TLR7): 67.9 nM
IC50 (human TLR8; [3]): 6 nM
IC50 (human TLR9; [4]): 111 nM

CCN(CC)CCCN1CCC(c2ccc3[nH]c(-c4cc(C)nc(C)c4)c(C(C)C)c3c2)CC1 [Example 671, 3-(4-(2-(2,6-dimethylpyridin-4-yl)-3-isopropyl-1H-indol-5-yl)piperidin-1-yl)-N,N-diethylpropan-1-amine]
IC50 (human TLR7): 0.6 nM
IC50 (human TLR8; [1]): 2.6 nM
IC50 (human TLR9; [2]): 76 nM

CCOCCN1CCC(c2ccc3[nH]c(-c4ccnc(C)c4)c(C(C)C)c3c2)CC1 [Example 659, 5-(1-(2-ethoxyethyl)piperidin-4-yl)-3-isopropyl-2-(2-methylpyridin-4-yl)-1H-indole]
IC50 (human TLR7): 31.7 nM
IC50 (human TLR8; [1]): 16.7 nM
IC50 (human TLR9; [2]): 1450 nM

Cc1cc(-c2[nH]c3ccc(C4CCN(CC(=O)N[C@H](C)C(F)(F)F)CC4)cc3c2C(C)C)cc(C)n1 [Example 252, (R)-2-(4-(2-(2,6-dimethylpyridin-4-yl)-3-isopropyl-1H-indol-5-yl)piperidin-1-yl)-N-(1,1,1-trifluoropropan-2-yl)acetamide]
IC50 (human TLR7): 8.3 nM
IC50 (human TLR8; [1]): 24.4 nM
IC50 (human TLR9; [2]): 1810 nM

CNCCN1CCC(c2ccc3[nH]c(-c4ccnc(C(=O)OC)c4)c(C)c3c2)CC1 [Example 752, methyl 4-(3-methyl-5-(1-(2-(methylamino)ethyl)piperidin-4-yl)-1H-indol-2-yl) picolinate]
IC50 (human TLR7): 231 nM
IC50 (human TLR8; [1]): 114 nM
IC50 (human TLR9; [2]): 199 nM

Cc1cc(-c2[nH]c3ccc(C4CCN(CC(=O)N5CCCC5)CC4)cc3c2C(C)C)cc(C)n1 [Example 242, 2-(4-(2-(2,6-dimethylpyridin-4-yl)-3-isopropyl-1H-indol-5-yl)piperidin-1-yl)-1-(pyrrolidin-1-yl)ethan-1-one]
IC50 (human TLR7): 5.2 nM
IC50 (human TLR8; [1]): 24.7 nM
IC50 (human TLR9; [2]): 1020 nM

Cc1cnc(F)cc1-c1[nH]c2ccc(C3CCNCC3)cc2c1C(C)C [Example 28, 2-(2-fluoro-5-methylpyridin-4-yl)-3-isopropyl-5-(piperidin-4-yl)-1H-indole]
IC50 (human TLR7): 7.2 nM
IC50 (human TLR8; [1]): 33.9 nM
IC50 (human TLR9; [2]): 3430 nM

CCOC(=O)N1CCC(c2ccc3[nH]c(-c4ccnc(C)c4)c(C(C)C)c3c2)CC1 [Example 560, ethyl 4-(3-isopropyl-2-(2-methylpyridin-4-yl)-1H-indol-5-yl)piperidine-1-carboxylate]
IC50 (human TLR7): 247 nM
IC50 (human TLR8; [1]): 607 nM
IC50 (human TLR9; [2]): 10400 nM

Cc1cc(-c2[nH]c3ccc(C4CCNCC4)cc3c2C(C)C)cc(F)n1 [Example 3, 2-(2-fluoro-6-methylpyridin-4-yl)-3-isopropyl-5-(piperidin-4-yl)-1H-indole]
IC50 (human TLR7): 1.8 nM
IC50 (human TLR8; [1]): 3.8 nM
IC50 (human TLR9; [2]): 1890 nM

Cc1cc(-c2[nH]c3ccc(C4CCN(C(=O)CCN5CCOCC5)CC4)cc3c2C(C)C)c(F)cn1 [Example 657, 1-(4-(2-(5-fluoro-2-methylpyridin-4-yl)-3-isopropyl-1H-indol-5-yl)piperidin-1-yl)-3-morpholinopropan-1-one]
IC50 (human TLR7): 5.9 nM
IC50 (human TLR8; [1]): 5.3 nM
IC50 (human TLR9; [2]): 5680 nM

COc1cc(-c2[nH]c3ccc(C4CCN(C(=O)CN(C)C)CC4)cc3c2C(C)C)ccn1 [Example 521, 2-(dimethylamino)-1-(4-(3-isopropyl-2-(2-methoxypyridin-4-yl)-1H-indol-5-yl)piperidin-1-yl)ethan-1-one]
IC50 (human TLR7): 41.6 nM
IC50 (human TLR8; [1]): 115 nM
IC50 (human TLR9; [2]): 3710 nM

Cc1cc(-c2[nH]c3ccc(C4CCN(Cc5ncco5)CC4)cc3c2C(C)C)c(F)cn1 [Example 700, 2-((4-(2-(5-fluoro-2-methylpyridin-4-yl)-3-isopropyl-1H-indol-5-yl)piperidin-1-yl)methyl)oxazole]
IC50 (human TLR7): 55.8 nM
IC50 (human TLR8; [1]): 16 nM
IC50 (human TLR9; [2]): > 50000 nM

Cc1cc(-c2[nH]c3ccc(C4CCN(S(=O)(=O)C(C)C)CC4)cc3c2C(C)C)ccn1 [Example 544, 3-isopropyl-5-(1-(isopropylsulfonyl)piperidin-4-yl)-2-(2-methylpyridin-4-yl)-1H-indole]
IC50 (human TLR7): 119 nM
IC50 (human TLR8; [1]): 245 nM
IC50 (human TLR9; [2]): 12200 nM

Cc1cc(-c2[nH]c3ccc(C4CCN(CC(=O)N(C)C(C)C)CC4)cc3c2C(C)C)cc(C)n1 [Example 244, 2-(4-(2-(2,6-dimethylpyridin-4-yl)-3-isopropyl-1H-indol-5-yl)piperidin-1-yl)-N-isopropyl-N-methylacetamide]
IC50 (human TLR7): 8.2 nM
IC50 (human TLR8; [3]): 20.3 nM
IC50 (human TLR9; [4]): 990 nM

Cc1cc(-c2[nH]c3ccc(C4CCN(Cc5c[nH]cn5)CC4)cc3c2C(C)C)cc(C)n1 [Example 425, 5-(1-((1H-imidazol-4-yl)methyl)piperidin-4-yl)-2-(2,6-dimethylpyridin-4-yl)-3-isopropyl-1H-indole]
IC50 (human TLR7): 3.7 nM
IC50 (human TLR8; [1]): 2.5 nM
IC50 (human TLR9; [2]): 143 nM

Cc1cc(-c2[nH]c3ccc(C4CCN(C(=O)C5CCNCC5)CC4)cc3c2C(C)C)cc(C)n1 [Example 178, (4-(2-(2,6-dimethylpyridin-4-yl)-3-isopropyl-1H-indol-5-yl)piperidin-1-yl)(piperidin-4-yl)methanone]
IC50 (human TLR7): 5.4 nM
IC50 (human TLR8; [1]): 27.3 nM
IC50 (human TLR9; [2]): 549 nM

CCc1c(-c2ccnc(N)c2)[nH]c2ccc([C@@H]3CCNC[C@@H]3F)cc12 [491-A]
IC50 (human TLR7): 156 nM
IC50 (human TLR8; [1]): 110 nM
IC50 (human TLR9; [2]): 354 nM

Cc1cc(-c2[nH]c3ccc(C4CCN(Cc5c[nH]nc5C)CC4)cc3c2C(C)C)cc(C)n1 [Example 439, 2-(2,6-dimethylpyridin-4-yl)-3-isopropyl-5-(1-((3-methyl-1H-pyrazol-4-yl)methyl)piperidin-4-yl)-1H-indole]
IC50 (human TLR7): 7.7 nM
IC50 (human TLR8; [1]): 6.3 nM
IC50 (human TLR9; [2]): 202 nM
